Measured values published in PMC5557545 (PLoS ONE, 2017).

What was measured:
[1] = system: endonuclease from detergent disrupted viral particles; parameters: method as in PMID 7695269; settings: cited from earlier work
[2] = system: influenza virus transcription; settings: cited from earlier work
[3] = biological target: influenza A polymerase acidic protein (PA), full length, N-terminal 3x FLAG tag (influenza A virus H1N1 strain A/PR/8) (UniProt P03433); assay: AUC

O=C(O)C(=O)CC(=O)c1ccc(-c2ccccc2)cc1 [Compound A, 4-([1,1'-biphenyl]-4-yl)-2,4-dioxobutanoic acid]
IC50 [1]: 3.7 µM

O=C(O)C(=O)CC(=O)C1(Cc2ccc(Cl)cc2)CCN(Cc2ccc(Cl)cc2)CC1 [Compound B, 4-(1,4-bis(4-chlorobenzyl)piperidin-4-yl)-2,4-dioxobutanoic acid]
IC50 [2]: 1100 nM

influenza A polymerase acidic protein (PA), full length, N-terminal 3x FLAG tag (from UniProt P03433 1-716) (natural protein)
percent dimer [3]: 10%
